34 compounds from ChEMBL document CHEMBL3046474, “Development of robust QSAR model using rapid overlay of crystal structures (ROCS) based alignment: a test case of Tubulin inhibitors” (Med Chem Res, 2013) can be followed below.

Structures are written as SMILES.

This assay deals with Tubulin. Kind of assay: Inhibition of tubulin polymerization in Homo sapiens (human) solid tumor cells.
`COc1ccc(/C=C(/C#N)c2cc(OC)c(OC)c(OC)c2)cc1` showed a pIC50 of 5.22.
On to `COc1ccc(/C=C(/C#N)c2cc(OC)c(OC)c(OC)c2)cc1N`, for which the pIC50 is reported as 5.
`COc1cc2ccc3cc(O)c(C)cc3c2c(OC)c1OC` registered a pIC50 of 4.
The compound `COc1cc(/C=C\c2ccc(Cl)c(N)c2)cc(OC)c1OC` had a pIC50 of 5.52.
Turning to `COc1ccc(/C=C\c2cc(OC)c(OC)c(OC)c2)cn1`, the pIC50 was 5.7.
Compound `COc1ccc(OCc2cc(OC)c(OC)c(OC)c2)cc1O` registered a pIC50 of 4.65.
As to `COc1cc(/C=C\c2ccc(C)c(N=[N+]=[N-])c2)cc(OC)c1OC`, the pIC50 is 5.92.
The result for `COc1cc(/C=C\c2ccccc2)cc(OC)c1OC` reads 4.44; that for `COc1ccc(NCc2cc(OC)c(OC)c(OC)c2)cc1`, 4.64; that for `COc1ccc(Oc2cc(OC)c(OC)c(OC)c2)cc1O`, 4.79.
`COc1ccc(CCCCc2cc(OC)c(OC)c(OC)c2)cc1O`: the pIC50 stood at 4.26.
Regarding `COc1cccc(/C=C\c2cc(OC)c(OC)c(OC)c2)c1`, the pIC50 is recorded as 5.06.
The result for `COc1ncc(/C=C\c2cc(OC)c(OC)c(OC)c2)cn1` reads 5.52; that for `COc1ccc(COc2cc(OC)c(OC)c(OC)c2)cc1O`, 5.46.
`COc1ccc(Cc2cc(OC)c(OC)c(OC)c2)cc1O` had a negative-log IC50 (pIC50) of 5.11.
For `COc1ccc(/C=C\c2cc(OC)c(OC)c(OC)c2)nc1` the value was 5.52; for `COc1cc(/C=C\c2ccc(C)cc2)cc(OC)c1OC`, 5.7.
Compound `COc1cc(/C=C\c2ccc(OC(C)=O)cc2)cc(OC)c1OC` displayed a pIC50 of 4.54.
The result for `COc1cnc(/C=C\c2cc(OC)c(OC)c(OC)c2)cn1` reads 5.05; that for `COc1ccc(NCc2cc(OC)c(OC)c(OC)c2)cc1O.Cl`, 5.05; that for `COc1ccc(C(O)C(O)c2cc(OC)c(OC)c(OC)c2)cc1O` (centres undefined), 4.66.
`COc1ccc(\C=C/C=C/C=C/c2cc(OC)c(OC)c(OC)c2)cc1O`: the pIC50 is recorded as 5.
Regarding `COc1cc(/C=C\c2ccn(C)c(=O)c2)cc(OC)c1OC`, the pIC50 is 5.7.
For `COc1ccc(/C=C(/C#N)c2cc(OC)c(OC)c(OC)c2)cc1O`, the pIC50 is recorded as 5.3.
As to `COc1ccc(/C=C(/C=O)c2cc(OC)c(OC)c(OC)c2)cc1`, the pIC50 turned out to be 5.4.
`CCCOc1ccc(/C=C\c2cc(OC)c(OC)c(OC)c2)cc1` displayed a pIC50 of 5.22.
For `COc1cc(/C=C\c2cccc(SC)c2)cc(OC)c1OC`, the pIC50 came out at 5.21.
For `COc1ccc(/C=C(/C(N)=O)c2cc(OC)c(OC)c(OC)c2)cc1N` the value was 5.52; for `COc1ccc(/C(C#N)=C\c2cc(OC)c(OC)c(OC)c2)cc1N`, 5.3.
On to `COc1cc(CNc2ccc(C)c(O)c2)cc(OC)c1OC.Cl`, for which the pIC50 came out at 5.46.
Compound `COc1cc(/C=C\c2ccc(Br)cc2)cc(OC)c1OC` showed a negative-log IC50 (pIC50) of 5.51.
As to `COc1cc(/C=C\c2ccc(N(C)C)cc2)cc(OC)c1OC`, the pIC50 is 5.47.
The result for `COc1ccc(CCc2cc(OC)c(OC)c(OC)c2)cc1O` reads 5.48; that for `COc1cc(/C=C\c2ccc(C)c(N)c2)cc(OC)c1OC`, 5.4.
